Numbered stars: 1 amine (or outer) side, 2 acyl side, 3 side chain; on linkers, the order of the positions; unused ones are H or OH. Bridge positions count the residues as written; N and C are the ends. Peptide text beside a SMILES is read from it. X1 = N[C@@H](CS[*:1])C(=O)NC(=O)[C@H](CO)N[*:2]
Tests used:
[1] = target: T1, Proprotein convertase subtilisin/kexin type 9 (Homo sapiens, UniProt Q8NBP7); assay: Binding affinity to human PCSK9 assessed as dissociation constant
[2] = target: T1, Proprotein convertase subtilisin/kexin type 9; assay: Binding affinity to full length C-terminal Avi/His6-tagged human PCSK9 expressed in Expi293 cells assessed as dissociation rate constant (Koff) by surface plasmon resonance assay
[3] = target: T1, Proprotein convertase subtilisin/kexin type 9; assay: Binding affinity to full length C-terminal Avi/His6-tagged human PCSK9 expressed in Expi293 cells assessed as change in entropy by isothermal titration calorimetric analysis
[4] = target: T1, Proprotein convertase subtilisin/kexin type 9; assay: Inhibition of tEGF-A[HA] binding to biotinylated human PCSK9 incubated for 2 hrs by ELISA based competitive binding assay
[5] = target: T1, Proprotein convertase subtilisin/kexin type 9; assay: Binding affinity to full length C-terminal Avi/His6-tagged human PCSK9 expressed in Expi293 cells assessed as change in enthalpy by isothermal titration calorimetric analysis
[6] = target: T1, Proprotein convertase subtilisin/kexin type 9; assay: Inhibition of PCSK9 in human HepG2 cells assessed as restoration of PCSK9-induced reduction in fluorescent LDL uptake at 50 nM incubated for 2 hrs by fluorescence plate reader analysis (Rvb= 46.1 +/- 5.6%); assay type: cell-based; set-up: scale not given: the % may be the effect or the level left
[7] = target: T1, Proprotein convertase subtilisin/kexin type 9; assay: Inhibition of PCSK9 in human HepG2 cells assessed as restoration of surface LDLR level at 50 nM incubated for 2 hrs by Western blot analysis (Rvb= 37.5 +/- 13.9%); assay type: cell-based; set-up: scale not given: the % may be the effect or the level left
HepG2 = assay: Cytotoxicity against human HepG2 cells assessed as reduction in cell viability at 10 uM incubated for 48 hrs by MTT assay; assay type: toxicity, cell-based; settings: hepg2, 48 h
[8] = target: T1, Proprotein convertase subtilisin/kexin type 9; assay: Binding affinity to full length C-terminal Avi/His6-tagged human PCSK9 expressed in Expi293 cells assessed as equilibrium dissociation constant by surface plasmon resonance assay

Row | K [2] [s⁻¹] | deltaS [3] [cal/mol/K] | IC50 [4] [nM] | deltaH [5] [kcal/mol] | Activity [6] [%] | Activity [7] [%] | Kd [8] [nM] | SMILES | Kd [1] [nM] | Activity (HepG2)
1 | – | – | – | – | – | – | – | CC(C)C[C@H](NC(=O)[C@H](Cc1ccc(O)cc1)NC(=O)[C@H](CCC(=O)O)NC(=O)[C@H](CCC(=O)O)NC(=O)[C@H](Cc1c[nH]c2ccccc12)NC(=O)[C@H](CO)NC(=O)[C@@H](NC(=O)[C@H](Cc1ccccc1)NC(=O)[C@@H](NC(=O)[C@@H](N)[C@@H](C)O)C(C)C)[C@@H](C)O)C(=O)N[C@@H](CC(=O)O)C(=O)N[C@@H](Cc1c[nH]c2ccccc12)C(=O)N[C@H](C(=O)O)C(C)C | 660 | –
2 | 0.02 | -89.5 | 1260 | -37.3 | 97.1 | 112 | 974 | CC(C)C[C@@H]1NC(=O)[C@H](Cc2ccc(O)cc2)NC(=O)[C@H](CCC(=O)O)NC(=O)[C@H](CCC(=O)O)NC(=O)[C@H](Cc2c[nH]c3ccccc23)NC(=O)[C@H](CO)NC(=O)[C@H]([C@@H](C)O)NC(=O)[C@H](Cc2ccccc2)NC(=O)[C@H](C(C)C)NC(=O)[C@H]([C@@H](C)O)NC(=O)[C@@H](N)CSSC[C@H](N)C(=O)NC(=O)[C@H](CO)NC(=O)[C@H](CC(N)=O)NC(=O)[C@H](CCCNC(=N)N)NC(=O)[C@@H]2CCCN2C(=O)[C@H](Cc2cnc[nH]2)NC(=O)[C@H](CC(C)C)NC(=O)[C@H](CC(N)=O)NC(=O)[C@H](CC(N)=O)NC(=O)[C@H](Cc2c[nH]c3ccccc23)NC(=O)[C@H](CC(=O)O)NC1=O (H-CTVFTSWEEYLDWNNLHPRN; linker 1-C via X1) | – | Non-Toxic

Reference: ChEMBL document CHEMBL5038568, “Bioactive Cyclization Optimizes the Affinity of a Proprotein Convertase Subtilisin/Kexin Type 9 (PCSK9) Peptide Inhibitor” (J Med Chem, 2021)
